From ChEMBL document CHEMBL4507291 (2021)

Tests used:
[1] = molecular target: T1, Aurora kinase A (Homo sapiens) (UniProt O14965); experiment: AURKA (Aurora A) Kinase screen; details: Compound concentration 1.0 uM
T1 sequence (whole entry): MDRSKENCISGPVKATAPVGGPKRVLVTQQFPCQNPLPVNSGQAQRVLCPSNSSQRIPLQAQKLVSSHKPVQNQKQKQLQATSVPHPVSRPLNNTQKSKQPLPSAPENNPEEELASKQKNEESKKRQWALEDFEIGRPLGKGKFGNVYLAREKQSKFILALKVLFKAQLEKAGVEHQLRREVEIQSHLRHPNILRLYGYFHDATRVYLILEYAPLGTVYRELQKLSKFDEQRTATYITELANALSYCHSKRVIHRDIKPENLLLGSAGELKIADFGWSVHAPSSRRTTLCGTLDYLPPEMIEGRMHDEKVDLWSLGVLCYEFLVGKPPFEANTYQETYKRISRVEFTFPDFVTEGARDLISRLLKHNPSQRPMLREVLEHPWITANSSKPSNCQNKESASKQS

[2] = molecular target: Mitogen-activated protein kinase 14 (Homo sapiens) (UniProt Q16539); experiment: MAPK14 (p38 alpha) Direct Kinase screen; details: Compound concentration 1.0 uM
Mitogen-activated protein kinase 14 (Homo sapiens), sequence (Q16539 whole entry): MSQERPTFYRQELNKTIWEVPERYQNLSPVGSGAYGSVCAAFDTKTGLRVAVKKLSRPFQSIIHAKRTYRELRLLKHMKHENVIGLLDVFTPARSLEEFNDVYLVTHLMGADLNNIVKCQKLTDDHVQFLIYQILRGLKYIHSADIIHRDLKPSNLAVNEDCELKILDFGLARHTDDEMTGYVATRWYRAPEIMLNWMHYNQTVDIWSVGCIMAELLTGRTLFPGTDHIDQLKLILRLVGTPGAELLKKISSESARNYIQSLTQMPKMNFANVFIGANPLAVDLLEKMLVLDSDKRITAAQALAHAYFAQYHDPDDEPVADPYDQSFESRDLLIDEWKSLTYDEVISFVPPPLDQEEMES

[3] = molecular target: Activin receptor type-2B (Homo sapiens) (UniProt Q13705); experiment: ACVR2B Kinase screen; details: Compound concentration 1.0 uM
Activin receptor type-2B (Homo sapiens), sequence (Q13705 whole entry): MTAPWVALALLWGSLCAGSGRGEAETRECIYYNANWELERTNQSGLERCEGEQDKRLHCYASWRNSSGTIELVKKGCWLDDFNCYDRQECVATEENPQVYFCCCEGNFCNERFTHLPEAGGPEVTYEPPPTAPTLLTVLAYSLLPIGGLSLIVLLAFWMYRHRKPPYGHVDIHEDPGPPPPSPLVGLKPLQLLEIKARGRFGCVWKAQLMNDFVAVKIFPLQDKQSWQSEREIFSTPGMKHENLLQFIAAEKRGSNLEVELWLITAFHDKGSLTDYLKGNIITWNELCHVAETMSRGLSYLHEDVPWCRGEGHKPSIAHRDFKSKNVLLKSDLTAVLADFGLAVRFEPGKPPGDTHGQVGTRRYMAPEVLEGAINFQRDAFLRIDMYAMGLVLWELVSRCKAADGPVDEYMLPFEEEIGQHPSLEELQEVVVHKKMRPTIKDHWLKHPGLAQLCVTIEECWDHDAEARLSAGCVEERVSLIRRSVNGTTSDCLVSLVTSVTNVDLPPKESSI

[4] = molecular target: Protein kinase C gamma type (Homo sapiens) (UniProt P05129); experiment: PRKCG (PKC gamma) Kinase screen; details: Compound concentration 1.0 uM
[5] = molecular target: Casein kinase I isoform gamma-2 (Homo sapiens) (UniProt P78368); experiment: CSNK1G2 (CK1 gamma 2) Kinase screen; details: Compound concentration 1.0 uM
Casein kinase I isoform gamma-2 (Homo sapiens), sequence (P78368 whole entry, looked up, canonical isoform): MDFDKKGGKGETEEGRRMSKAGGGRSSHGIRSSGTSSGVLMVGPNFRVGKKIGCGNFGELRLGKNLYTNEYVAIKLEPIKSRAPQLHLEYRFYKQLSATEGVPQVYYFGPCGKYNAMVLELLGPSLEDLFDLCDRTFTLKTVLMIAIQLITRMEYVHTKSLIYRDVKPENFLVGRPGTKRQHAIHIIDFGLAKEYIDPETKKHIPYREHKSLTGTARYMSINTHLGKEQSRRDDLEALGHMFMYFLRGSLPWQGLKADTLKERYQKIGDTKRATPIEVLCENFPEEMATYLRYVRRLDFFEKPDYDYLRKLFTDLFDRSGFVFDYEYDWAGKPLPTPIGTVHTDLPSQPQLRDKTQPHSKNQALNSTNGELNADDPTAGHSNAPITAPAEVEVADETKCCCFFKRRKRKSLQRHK

[6] = molecular target: T2, Serine/threonine-protein kinase 4 (Homo sapiens) (UniProt Q13043); experiment: STK4 (MST1) Kinase screen; details: Compound concentration 1.0 uM
T2 sequence (whole entry): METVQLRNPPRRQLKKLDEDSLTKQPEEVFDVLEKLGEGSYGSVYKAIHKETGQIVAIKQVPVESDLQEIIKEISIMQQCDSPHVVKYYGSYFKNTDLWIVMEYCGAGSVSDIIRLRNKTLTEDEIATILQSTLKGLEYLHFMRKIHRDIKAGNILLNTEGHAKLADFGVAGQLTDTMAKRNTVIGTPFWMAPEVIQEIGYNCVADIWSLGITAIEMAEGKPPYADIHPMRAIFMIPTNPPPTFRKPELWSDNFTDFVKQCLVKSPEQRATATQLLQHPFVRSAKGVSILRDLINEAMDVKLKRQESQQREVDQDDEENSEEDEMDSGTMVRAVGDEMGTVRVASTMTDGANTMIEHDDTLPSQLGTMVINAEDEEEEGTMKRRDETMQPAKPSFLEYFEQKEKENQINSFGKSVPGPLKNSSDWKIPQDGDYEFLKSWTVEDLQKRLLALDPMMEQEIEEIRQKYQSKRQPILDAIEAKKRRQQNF

[7] = molecular target: T3, Muscarinic acetylcholine receptor M5 (Homo sapiens) (UniProt P08912); experiment: Inhibition of Muscarinic M5 at 10 µM in the Eurofins-Panlabs radioligand binding assay (Eurofins_assay_253010); design: ligand concentration 0.8 nM; details: Compound concentration 10.0 uM
T3 sequence (whole entry): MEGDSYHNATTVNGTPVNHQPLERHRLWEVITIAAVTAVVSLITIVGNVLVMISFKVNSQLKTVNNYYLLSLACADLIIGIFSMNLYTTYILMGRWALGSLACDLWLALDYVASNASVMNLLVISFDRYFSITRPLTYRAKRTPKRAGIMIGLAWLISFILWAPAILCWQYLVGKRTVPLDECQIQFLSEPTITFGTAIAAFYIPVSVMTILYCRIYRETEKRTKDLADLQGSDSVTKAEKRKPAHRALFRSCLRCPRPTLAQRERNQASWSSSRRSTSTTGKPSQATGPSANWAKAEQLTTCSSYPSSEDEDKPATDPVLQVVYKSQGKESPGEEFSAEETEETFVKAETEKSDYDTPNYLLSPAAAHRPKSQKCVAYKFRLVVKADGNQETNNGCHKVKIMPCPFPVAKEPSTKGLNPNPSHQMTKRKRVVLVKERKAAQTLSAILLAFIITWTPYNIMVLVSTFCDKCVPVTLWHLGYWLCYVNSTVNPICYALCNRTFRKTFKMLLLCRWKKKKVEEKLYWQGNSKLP

[8] = tested on: Proto-oncogene tyrosine-protein kinase receptor Ret (Homo sapiens), P07949 [Y791F]; experiment: RET Y791F Kinase screen; details: Compound concentration 1.0 uM
Proto-oncogene tyrosine-protein kinase receptor Ret (Homo sapiens), P07949 [Y791F], sequence (P07949 whole entry Y791F): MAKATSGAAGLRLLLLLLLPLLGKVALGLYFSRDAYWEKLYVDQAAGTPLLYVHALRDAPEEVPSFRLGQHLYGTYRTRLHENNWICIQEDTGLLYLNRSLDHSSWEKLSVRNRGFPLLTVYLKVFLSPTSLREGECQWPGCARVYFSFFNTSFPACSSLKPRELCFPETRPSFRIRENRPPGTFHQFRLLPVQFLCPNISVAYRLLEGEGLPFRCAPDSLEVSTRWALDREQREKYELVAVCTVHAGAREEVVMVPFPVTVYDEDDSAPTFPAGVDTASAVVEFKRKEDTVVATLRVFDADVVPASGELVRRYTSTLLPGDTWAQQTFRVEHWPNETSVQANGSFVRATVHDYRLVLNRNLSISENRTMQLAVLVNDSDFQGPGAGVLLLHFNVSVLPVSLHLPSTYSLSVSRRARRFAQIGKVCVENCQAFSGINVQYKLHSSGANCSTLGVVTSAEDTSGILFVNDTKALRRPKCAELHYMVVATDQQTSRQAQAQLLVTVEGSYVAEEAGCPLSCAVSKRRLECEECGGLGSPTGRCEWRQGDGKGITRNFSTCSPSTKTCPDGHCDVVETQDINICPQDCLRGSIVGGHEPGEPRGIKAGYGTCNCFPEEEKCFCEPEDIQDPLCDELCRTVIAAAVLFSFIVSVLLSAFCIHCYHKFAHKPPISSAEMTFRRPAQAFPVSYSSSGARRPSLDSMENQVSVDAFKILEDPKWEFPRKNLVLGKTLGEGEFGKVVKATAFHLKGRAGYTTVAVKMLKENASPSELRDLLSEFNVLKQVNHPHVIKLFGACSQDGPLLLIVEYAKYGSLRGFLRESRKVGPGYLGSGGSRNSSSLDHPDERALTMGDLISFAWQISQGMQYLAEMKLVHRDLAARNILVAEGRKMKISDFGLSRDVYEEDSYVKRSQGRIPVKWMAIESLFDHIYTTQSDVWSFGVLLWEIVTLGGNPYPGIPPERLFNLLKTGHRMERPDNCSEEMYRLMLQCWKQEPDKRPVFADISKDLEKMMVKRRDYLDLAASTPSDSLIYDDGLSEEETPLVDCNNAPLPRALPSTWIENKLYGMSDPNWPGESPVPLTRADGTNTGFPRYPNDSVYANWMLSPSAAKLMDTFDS

[9] = molecular target: Caspase-8 (Homo sapiens) (UniProt Q14790); experiment: Peptidase, CASP8 (Caspase 8) Eurofins-Panlabs enzyme assay; details: Compound concentration 10.0 uM
Caspase-8 (Homo sapiens), sequence (Q14790 217-374 limits assumed): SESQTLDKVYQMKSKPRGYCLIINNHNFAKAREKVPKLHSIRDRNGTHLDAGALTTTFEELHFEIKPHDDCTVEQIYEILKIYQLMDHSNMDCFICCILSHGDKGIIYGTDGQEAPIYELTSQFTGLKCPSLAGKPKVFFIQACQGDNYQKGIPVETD
Caspase-8 (Homo sapiens), sequence (Q14790 385-479 limits assumed): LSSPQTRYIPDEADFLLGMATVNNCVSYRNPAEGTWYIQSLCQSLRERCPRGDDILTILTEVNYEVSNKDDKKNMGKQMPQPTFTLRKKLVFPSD

[10] = molecular target: Insulin receptor (Homo sapiens) (UniProt P06213); experiment: INSR Kinase screen; details: Compound concentration 1.0 uM
Insulin receptor (Homo sapiens), sequence (P06213 28-758 limits assumed): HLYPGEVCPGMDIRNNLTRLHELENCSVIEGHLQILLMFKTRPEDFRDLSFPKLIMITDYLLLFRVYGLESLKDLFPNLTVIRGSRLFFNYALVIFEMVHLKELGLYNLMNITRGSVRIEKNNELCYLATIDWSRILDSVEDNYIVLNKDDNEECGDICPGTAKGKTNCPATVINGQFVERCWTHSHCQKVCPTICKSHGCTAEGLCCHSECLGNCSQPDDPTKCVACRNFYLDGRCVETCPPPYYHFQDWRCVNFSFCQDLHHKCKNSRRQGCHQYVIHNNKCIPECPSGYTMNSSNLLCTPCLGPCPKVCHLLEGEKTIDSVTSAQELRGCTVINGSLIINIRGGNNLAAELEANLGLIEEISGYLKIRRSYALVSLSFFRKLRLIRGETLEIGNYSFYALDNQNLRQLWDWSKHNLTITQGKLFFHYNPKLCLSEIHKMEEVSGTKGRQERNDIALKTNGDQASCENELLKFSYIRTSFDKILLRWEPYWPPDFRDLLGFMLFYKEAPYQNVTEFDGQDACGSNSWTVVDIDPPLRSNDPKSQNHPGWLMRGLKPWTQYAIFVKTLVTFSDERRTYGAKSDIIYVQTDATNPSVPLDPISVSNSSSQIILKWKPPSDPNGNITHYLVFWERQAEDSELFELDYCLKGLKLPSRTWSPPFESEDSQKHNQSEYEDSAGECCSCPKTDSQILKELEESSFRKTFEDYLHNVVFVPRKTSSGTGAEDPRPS
Insulin receptor (Homo sapiens), sequence (P06213 763-1382 limits assumed): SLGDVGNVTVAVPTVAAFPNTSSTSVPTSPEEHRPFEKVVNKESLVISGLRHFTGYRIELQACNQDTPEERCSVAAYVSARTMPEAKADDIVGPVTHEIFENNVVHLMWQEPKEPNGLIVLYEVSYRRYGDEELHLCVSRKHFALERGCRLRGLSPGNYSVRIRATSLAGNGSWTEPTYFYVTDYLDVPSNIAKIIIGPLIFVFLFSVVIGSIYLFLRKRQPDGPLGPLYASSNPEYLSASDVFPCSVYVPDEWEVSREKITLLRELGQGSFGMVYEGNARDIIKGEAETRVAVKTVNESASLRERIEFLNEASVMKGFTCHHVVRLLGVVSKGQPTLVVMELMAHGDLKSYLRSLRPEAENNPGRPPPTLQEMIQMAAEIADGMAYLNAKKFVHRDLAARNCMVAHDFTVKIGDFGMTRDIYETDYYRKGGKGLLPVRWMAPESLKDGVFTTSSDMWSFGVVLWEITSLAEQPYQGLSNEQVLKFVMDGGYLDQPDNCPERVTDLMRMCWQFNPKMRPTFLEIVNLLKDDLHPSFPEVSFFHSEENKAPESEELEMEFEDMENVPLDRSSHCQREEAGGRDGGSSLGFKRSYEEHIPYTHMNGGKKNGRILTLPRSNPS

[11] = molecular target: T4, Serine/threonine-protein kinase NLK (Homo sapiens) (UniProt Q9UBE8); experiment: NLK Kinase screen; details: Compound concentration 1.0 uM
T4 sequence (whole entry): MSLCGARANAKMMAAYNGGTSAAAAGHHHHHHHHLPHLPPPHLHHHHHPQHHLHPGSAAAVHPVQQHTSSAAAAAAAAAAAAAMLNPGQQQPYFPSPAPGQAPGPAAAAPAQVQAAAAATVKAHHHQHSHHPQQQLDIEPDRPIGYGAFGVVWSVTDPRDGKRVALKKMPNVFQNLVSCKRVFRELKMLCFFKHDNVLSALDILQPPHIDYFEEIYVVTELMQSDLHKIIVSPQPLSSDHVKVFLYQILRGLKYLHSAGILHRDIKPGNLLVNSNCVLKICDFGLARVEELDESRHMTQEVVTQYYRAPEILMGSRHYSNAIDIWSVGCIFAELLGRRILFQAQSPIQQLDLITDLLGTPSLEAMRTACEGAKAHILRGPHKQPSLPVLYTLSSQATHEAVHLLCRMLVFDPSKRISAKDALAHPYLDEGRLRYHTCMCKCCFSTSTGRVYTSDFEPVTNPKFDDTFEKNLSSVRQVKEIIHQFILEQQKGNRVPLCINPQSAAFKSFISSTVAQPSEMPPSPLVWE

Measured: inhibition

C[C@@H]1CN(c2cc(-c3n[nH]c4ccc(OC5(C)CC5)cc34)ncn2)C[C@H](C)O1 [MLi-2]
inactive: [1] -0.211% | [2] 8.11% | [3] -1.21% | [4] 1.24% | [5] 2.4% | [6] 21.8% | [7] -8% | [8] 5.35% | [9] 7% | [10] -0.884% | [11] 4.49%
